In publication PMC6753678, “Fueling Open Innovation for Malaria Transmission-Blocking Drugs: Hundreds of Molecules Targeting Early Parasite Mosquito Stages” (Frontiers in Microbiology, 2019):
pIC50: −log10 of the molar value. Where two headings read alike, the source gives them in different places.

Legend:
[1] = test system: P. falciparum female gametocytes; set-up: method as in Miguel-Blanco et al 2017; settings: TCAMS library screen; ref Miguel-Blanco et al 2017; read-out: Pf FGAA IC50; cited from earlier work
HepG2 cells = settings: cited from earlier work
[2] = test system: P. falciparum female gametocytes; assay: P. falciparum female gametogenesis assay (Pf FGAA); settings: 1: YES; 0: NO
[3] = HepG2 value reported with Pf FGAA screen, ref Miguel-Blanco et al 2017

| Compound | pIC50 [1] | HepG2 cytoxicity (Pf FGAA screen) (HepG2 cells; [3]) [µM] | Is compound selective in assay? Pf FGAA active? [2] | HepG2 cytoxicity (Pf FGAA screen) (HepG2 cells) [µM] |
| --- | --- | --- | --- | --- |
| CC(Nc1cc(-c2ccccn2)nc(-c2ccccn2)n1)c1ccccc1 (stereo not drawn) [TCMDC-125420] | 6.68 | 6.18 | 1 (1: YES) | – |
| c1ccc(CNc2cc(-c3ccccn3)nc(-c3ccccn3)n2)cc1 [TCMDC-125421] | 6.49 | 13.04 | 1 (1: YES) | – |
| Fc1ccc2nc(Nc3nc(-c4ccccn4)cs3)sc2c1 [TCMDC-125540] | 7.27 | 58.31 | 1 (1: YES) | – |
| Oc1c(C(Nc2ccccn2)c2ccc(Cl)cc2Cl)ccc2cccnc12 (stereo not drawn) [TCMDC-125559] | 5.94 | 12.74 | 1 (1: YES) | – |
| O=C(Nc1cc(C(F)(F)F)cc(C(F)(F)F)c1)Nc1ccc(Cl)c(Cl)c1 [TCMDC-125592] | 5.84 | 3.07 | 0 (0: NO) | – |
| ON=C(c1nc2ccccc2[nH]1)c1nc2ccccc2[nH]1 [TCMDC-125758] | 6.48 | 4.96 | 1 (1: YES) | – |
| c1ccc(-c2nc(NC3CCCCC3)cc(C3CC3)n2)nc1 [TCMDC-125825] | 6.80 | 48.99 | 1 (1: YES) | – |
| CC(C)(C)c1cc(NC2CC2)nc(-c2ccccn2)n1 [TCMDC-125826] | 6.92 | >100 | 1 (1: YES) | – |
| CCN(CCNS(C)(=O)=O)c1ccc(N)c(C)c1.O.O=S(=O)(O)O [TCMDC-125836] | 5.94 | 26.14 | 1 (1: YES) | – |
| Br.Oc1ccc(CCNCCCCCCNCCc2ccc(-c3ccccc3)cc2)cc1O [TCMDC-131268] | 4.96 | 13.18 | 0 (0: NO) | – |
| Br.CC(C)(Cc1ccc(Cl)cc1)NCCCCCCNCCc1ccc(O)c(O)c1 [TCMDC-131277] | 5.02 | 10.97 | 0 (0: NO) | – |
| C[C@H](Cc1ccc(OCCCCCCOc2ccc(C[C@@H](C)N[C@H](C)c3ccccc3)cc2)cc1)NC[C@H](O)c1cccc(Cl)c1.Cl [TCMDC-131564] | 6.14 | 4.28 | 0 (0: NO) | – |
| Br.CCc1c(CCNCCCCCCNCCc2ccc(Br)cc2)ccc(O)c1O [TCMDC-132044] | 5.89 | 7.96 | 0 (0: NO) | – |
| Cc1c2ccncc2c(C)c2c1[nH]c1cc(Cc3ccccc3)c(O)cc12 [TCMDC-132053] | 5.96 | 1.23 | 0 (0: NO) | – |
| CCc1c(CCNC/C=C/C=C/CNCCc2ccc(OC)c(OC)c2CC)ccc(OC)c1OC.Cl [TCMDC-132061] | 5.59 | 4.68 | 0 (0: NO) | – |
| CCc1c(CCNCCCCCNCCc2ccc(OC)c(OC)c2CC)ccc(OC)c1OC.Cl [TCMDC-132064] | 5.69 | 4.68 | 0 (0: NO) | – |
| CCc1c(CCNCCCCCCNCCc2ccc3c(c2C)OCO3)ccc2c1OCO2.Cl [TCMDC-132093] | 5.99 | 3.89 | 0 (0: NO) | – |
| Cl.N#Cc1c(F)cc(N2CCC(NCC[C@H](N)Cc3ccc(F)c(F)c3)CC2)cc1F [TCMDC-132121] | 6.14 | – | 0 (0: NO) | 4.58 |
| CN(C)Cc1cccc2nc(-c3csc(Cc4cc(Cl)ccc4OCc4ccccc4)n3)[nH]c12 [TCMDC-132174] | 5.68 | 13.04 | 0 (0: NO) | – |

| Compound | pIC50 [1] | HepG2 cytoxicity (Pf FGAA screen) (HepG2 cells; [3]) [µM] | Is compound selective in assay? Pf FGAA active? [2] | HepG2 cytoxicity (Pf FGAA screen) (HepG2 cells) [µM] |
| --- | --- | --- | --- | --- |
| O=C(O)C(F)(F)F.O=S(=O)(NCCN1CCCC1)c1ccc(-c2cccc(CNC3Cc4ccccc4C3)c2)cc1 [TCMDC-132215] | 5.60 | 6.03 | 0 (0: NO) | – |
| O=C(O)C(F)(F)F.O=S(=O)(NCCN1CCCC1)c1ccc(-c2cccc(CNC3Cc4ccccc4C3)c2)s1 [TCMDC-132217] | 5.89 | 5.50 | 0 (0: NO) | – |
| CN1CCC(NCc2cccc(-c3ccc(S(=O)(=O)NCc4ccccc4)c(F)c3)c2)CC1.O=C(O)C(F)(F)F [TCMDC-132219] | 5.58 | 5.13 | 0 (0: NO) | – |
| O=C(O)C(F)(F)F.O=S(=O)(NCCN1CCCC1)c1ccc(-c2ccc(CNC3Cc4ccccc4C3)cc2)s1 [TCMDC-132234] | 5.64 | 5.83 | 0 (0: NO) | – |
| Cc1cc(-c2ccc(CNC3Cc4ccccc4C3)cc2)ccc1S(=O)(=O)NCCN1CCCC1.O=C(O)C(F)(F)F [TCMDC-132243] | 5.74 | 5.31 | 0 (0: NO) | – |
| COc1ccc(CNC2CCN(C)CC2)cc1-c1ccc(S(=O)(=O)NCc2ccccc2)s1.O=C(O)C(F)(F)F [TCMDC-132253] | 5.76 | 5.50 | 0 (0: NO) | – |
| COc1ccc(CNC2Cc3ccccc3C2)cc1-c1ccc(S(=O)(=O)NCCN2CCCC2)s1.O=C(O)C(F)(F)F [TCMDC-132258] | 5.86 | 5.31 | 0 (0: NO) | – |
| COc1ccc(CNC2Cc3ccccc3C2)cc1-c1ccc(S(=O)(=O)NCCN2CCCC2)c(F)c1.O=C(O)C(F)(F)F [TCMDC-132266] | 5.71 | 6.03 | 0 (0: NO) | – |
| Cl.N[C@@H](CCNC1CCN(c2cccc(C(F)(F)F)c2)CC1)Cc1ccc(F)c(F)c1 [TCMDC-132301] | 6.36 | 3.76 | 0 (0: NO) | – |
| Cc1ccc(Cn2nc(N3CCNCC3)ccc2=O)cc1NC(=O)Nc1ccc(-c2ccccc2)cc1.O=C(O)C(F)(F)F [TCMDC-132580] | 5.71 | 7.42 | 0 (0: NO) | – |
| O=S(=O)(Nc1cccc(F)c1CNCc1ccccn1)c1ccc(Cl)c(Cl)c1 [TCMDC-132598] | 5.87 | 20.42 | 1 (1: YES) | – |
| Cc1cccc2nc(-c3ccc(-c4ccc(CNCc5ccc(CN)cc5)cc4)cc3)[nH]c12.O=C(O)C(F)(F)F [TCMDC-132813] | 5.67 | 18.09 | 0 (0: NO) | – |
| NCc1ccc(CNCc2ccc(-c3ccc(-c4nc5cc(C(F)(F)F)ccc5[nH]4)s3)cc2)cc1.O=C(O)C(F)(F)F [TCMDC-132814] | 5.99 | 8.32 | 0 (0: NO) | – |
| CNCCNCc1ccc(-c2ccc(-c3nc4cc(C(F)(F)F)ccc4[nH]3)s2)cc1.O=C(O)C(F)(F)F [TCMDC-132838] | 5.89 | 6.10 | 0 (0: NO) | – |
| FC(F)(F)c1ccc2[nH]c(-c3ccc(-c4ccc(CNCCN5CCNCC5)cc4)cc3)nc2c1.O=C(O)C(F)(F)F [TCMDC-132865] | 5.85 | 16.43 | 1 (1: YES) | – |
| Cc1cccc2nc(-c3ccc(-c4ccc(CNCCN5CCNCC5)cc4)s3)[nH]c12.O=C(O)C(F)(F)F [TCMDC-132870] | 5.82 | 14.29 | 0 (0: NO) | – |
| FC(F)(F)c1ccc2[nH]c(-c3cccc(-c4cccc(CNCCN5CCNCC5)c4)c3)nc2c1.O=C(O)C(F)(F)F [TCMDC-132871] | 5.91 | 6.61 | 0 (0: NO) | – |
| CCCN(CC1CC1)c1ncc(-c2cccc(CNCCC3CCCN3C)c2)cn1 (stereo not drawn) [TCMDC-133142] | 5.66 | 3.09 | 0 (0: NO) | – |
